Data on 1 compound can be found in paper PMC6562543 (Marine Drugs, 2019).

The subject of this assay is CaV2.2 channels (α1B, α2δ1, and β3). In kind it is cell-based, rat.

Molecules are shown by their SMILES.

The compound `CSCC[C@@H]1NC(=O)[C@H](CC(C)C)NC(=O)[C@H](CCCNC(=N)N)NC(=O)[C@H](CO)NC(=O)[C@@H]2CSSC[C@@H]3NC(=O)[C@H](CO)NC(=O)CNC(=O)[C@H]([C@@H](C)O)NC(=O)[C@H](CSSC[C@H](N)C(=O)N[C@@H](CCCCN)C(=O)NCC(=O)N[C@@H](CCCCN)C(=O)NCC(=O)N[C@@H](C)C(=O)N[C@@H](CCCCN)C(=O)N2)NC(=O)[C@H](CSSC[C@@H](C(N)=O)NC(=O)[C@H](CCCCN)NC(=O)CNC(=O)[C@H](CO)NC(=O)[C@H](CCCNC(=N)N)NC3=O)NC(=O)[C@H](CC(=O)O)NC(=O)[C@H](Cc2ccc(O)cc2)NC1=O` [MVIIA, ω-Conotoxin MVIIA] registered a Hill slope of 1.296. The “inhibitory effect on CaV2.2 channel” value (2 µM) is given as “more than 90%”. Also, under “SEM”, the “reduction of ICa amplitude” value is recorded as 98.24 ± 0.708%.
